Patent publication US12527880B2, “Cyanine-based telodendrimers and uses for treating cancer” (priority 2018, dated 2026)

What was measured:
[1] = In vivo blood elimination kinetics; design: species or system female Sprague-Dawley rats
Text: In vivo blood elimination kinetics. The jugular vein of female Sprague-Dawley rats was implanted with catheter for blood collection (Harland, Indianapolis, IN, USA). […] All of the blood samples were collected from the catheter at different time point. Micro-plate reader (SpectraMax M2) was used to measure the ICG concentration at absorbance at 808 nm.

[2] = female, Sprague-Dawley, rat, blood, iv, 5 mg kg^−1, rats

Experimental for OSC-3 oral cancer cells: The in vitro cell cytotoxicity, cellular uptake study and combination therapy of samples were assessed on human OSC-3 oral cancer cell line, which was purchased from American type culture collection (ATCC). The cells were cultured with DMEM supplemented with 10% FBS and 1% Penicillin at 37° C. in humidified atmosphere with 5% CO2 for 24 h. Then the samples were added to each well and the cells were incubated at 37° C. for an additional 24 h. After the incubation, the relative cell viabilities were measured by the MTS assay. […] For in vitro chemo-/photothermal combination therapy, OSC-3 cells were seeded into 96-well plates (n=3) and incubated with different samples for 4 h, followed by exposure to an 808 nm NIR laser (0.8 W cm^2, 2 min). Thereafter, the cells were incubated for another 24 h at 37° C. and MTS reagent was added into each well. The relative cell viabilities were then measured by MTS assay. Percentage of cell viability represents drug effect, and 100% means all cells survived. Cell viability was calculated using the following equation: Cell viability (%)=(OD490 nm of treatment/OD490 nm of blank control)×100%. For in vitro cells apoptosis experiment, OSC-3 cells were co-cultured with different samples (DOX concentration: 25 μg mL^−1 and 808 nm NIR laser (0.8 W cm^2, 2 min), if applied) for 8 h. Cells were washed two times and replaced with fresh medium.

Row | time to clearance from circulation ([1]; after intravenous administration) | AUC [1, 2] | half-life [1, 2] | Compound | cell viability (OSC-3 oral cancer cells)
1 |  |  |  | COc1cccc2c1C(=O)c1c(O)c3c(c(O)c1C2=O)C[C@@](O)(C(=O)CO)C[C@@H]3O[C@H]1C[C@H](N)[C@H](O)[C@H](C)O1 [free DOX, doxorubicin] | 61%
2 | ≤ 30 min | 12100 ng·h/mL | 5.22 min | CC1(C)C(/C=C/C=C/C=C/C=C2\N(CCCCS(=O)(=O)O)c3ccc4ccccc4c3C2(C)C)=[N+](CCCCS(=O)(=O)[O-])c2ccc3ccccc3c21 [free ICG, indocyanine green] | 
